{
  "source": "patent US20170246228A1",
  "about": "“METHOD FOR SUPPRESSING PROLIFERATION AND/OR INDUCING APOPTOSIS OF CANCER CELLS” (Maruhachi Muramatsu, Inc., priority 2016, published 2017)",
  "data": [
    {"test_system": "MDA-MB-231 cells", "assay": "Cell proliferation of MDA-MB-231 cells with inhibitors that induce cell-cycle arrest, 3 days of culture", "format": "cell-based, human", "settings": "absence of S. horneri active component, butyrate 10 and 100 μM, roscovitine 10 and 100 nM, sulforaphane 1 and 10 nM, FIG. 2(A)", "protocol": "Cells were detached from each culture dishes using 0.2% trpysin plus 0.02% EDTA in Ca^2+/Mg^2+-free PBS for 2 min at 37° C., cells were collected after centrifugation. Cells were resuspended on PBS solution and stained with eosin. Cell numbers were counted under a microscope using a Hemocytometer plate. For each dish, we took the average of two countings.\nData are expressed as the mean±standard deviation (SD). Statistical significance was determined using GraphPad InStat version 3 for Windows XP (GraphPad Software Inc. La Jolla, Calif.). Multiple comparisons were performed by one-way analysis of variance (ANOVA) with Tukey-Kramer multiple comparisons post-test for parametric data as indicated. Data indicated P<0.05 was considered statistically significant.\nBreast cancer MDA-MB-231 cells (1×10^5/ml per well) were cultured in a 24-well plate in DMEM containing 10% FBS and 1% P/S for 3 days in the presence or absence of S. horneri active component (50 μg/ml) with or without sodium butyrate (10 and 100 μM), roscovitine (10 and 100 nM) or sulforaphane (1 and 10 nM). Upon completion of culture, the cells were detached from wells, and the number of cells was counted and statistical processing was performed in accordance with the methods described in 2-1-2 and 2-1-3.", "values": [
      {"smiles": "CCCC(=O)[O-].[Na+]", "note": "[butyrate, sodium butyrate]", "proliferation of MDA-MB-231 cells in the presence of the inhibitor alone": "suppressed"},
      {"smiles": "C[S+]([O-])CCCCN=C=S", "note": "(stereo not drawn) [sulforaphane]", "proliferation of MDA-MB-231 cells in the presence of the inhibitor alone": "suppressed"},
      {"smiles": "CC[C@H](CO)Nc1nc(NCc2ccccc2)c2ncn(C(C)C)c2n1", "note": "[roscovitine]", "proliferation of MDA-MB-231 cells in the presence of the inhibitor alone": "suppressed"}
    ]}
  ]
}
